Tested on: Escherichia coli
Experiment: MIC (Minimum Inhibitory Concentration) test, bacterial growth inhibition in synthetic urine (Bioscreen optical density)
Type: cell-based
Details: mixed 1+3 with synthetic urine
Procedure: Experimental tests were conducted in order to verify the above-discussed results. In the experiments, solutions were prepared and sterilized by radiation (E-beam) or heat (autoclave). […] Further, some of the solutions were buffered to a predetermined pH-value with a citrate buffer (a buffer-system consisting of sodium citrates). All solutions were mixed with three volumetric parts synthetic urine in the experiments. Synthetic urine supports bacterial growth and were used as growth medium as well as negative control reference in the experiments. All experiments were made on the bacteria Escherichia coli, since the E. coli bacteria is normally the most relevant bacteria to inhibit for urinary catheter products. MIC (Minimum Inhibitory Concentration) tests were performed to assess the potential of a given substance and concentration to inhibit bacterial growth. The solutions were added to a growth solution containing a specified number of bacteria. The bacteria were then grown in microtiter-wells at 37 deg. C. in a Bioscreen-instrument for a period of at least 40 hours. The bacterial growth/inhibition was monitored in terms of optical density for the solution. Since all microorganisms increase the optical density of a solution during growth and multiplication, the Bioscreen measure of the transmittance/absorbance of light through the sample is correlated to the concentration of microorganisms. The results of the measurements of the different solutions are compared to a negative control reference, i.e. to synthetic urine, for each set of experiments.

[1] = 0.1% w/w, 850 mOsm, pH 6.5, no buffer
[2] = 0.3% w/w, 850 mOsm, pH 6.5, no buffer
[3] = 1.0% w/w, 850 mOsm, pH 6.5, no buffer

SMILES	Result (index): inhibition time relative to synthetic urine (0.9% w/w, 900 mOsm, pH 6.5, no buffer)	Result (index): inhibition time relative to synthetic urine (3.0% w/w, 1700 mOsm, pH 6.5, no buffer)	Result (index): inhibition time relative to synthetic urine (0.05% w/w, 860 mOsm, pH 5.6, citrate buffer)	Result (index): inhibition time relative to synthetic urine (0.05% w/w, 860 mOsm, pH 5.9, citrate buffer)	Result (index): inhibition time relative to synthetic urine (0.05% w/w, 860 mOsm, pH 6.5, no buffer)	Result (index): inhibition time relative to synthetic urine (0.05% w/w, 870 mOsm, pH 5.0, citrate buffer)	Result (index): inhibition time relative to synthetic urine [1]	Result (index): inhibition time relative to synthetic urine [2]	Result (index): inhibition time relative to synthetic urine [3]	Result (index): inhibition time relative to synthetic urine (0.25% w/w, 860 mOsm, pH 5.0, citrate buffer)	Result (index): inhibition time relative to synthetic urine (0.25% w/w, 860 mOsm, pH 5.6, citrate buffer)	Result (index): inhibition time relative to synthetic urine (0.25% w/w, 860 mOsm, pH 5.9, citrate buffer)	Result (index): inhibition time relative to synthetic urine (0.25% w/w, 860 mOsm, pH 6.5, no buffer)
[Cl-].[Na+] [NaCl, sodium chloride, reference compound]	1.0 index	1.5 index											
C/C=C/C=C/C(=O)[O-].[K+] [KS, Potassium Sorbate]			1.8 index	1.7 index	1.2 index	>8.0 index	3.8 index	5.0 index	5.3 index				
O=C([O-])c1ccccc1.[Na+] [NaB, Sodium Benzoate]							2.3 index	4.0 index	5.3 index	>8.0 index	>8.0 index	>8.0 index	4.0 index

From patent US8747882B2, “Catheter assembly with bactericidal effect” (Astra Tech AB, priority 2005, dated 2014)
